How the values were obtained:
[1] = target: T1, LinB haloalkane dehalogenase (Sphingobium indicum, UniProt D4Z2G1); assay: LinB biosensor sensitivity for halogenated hydrocarbons
T1 sequence (D4Z2G1 1-296): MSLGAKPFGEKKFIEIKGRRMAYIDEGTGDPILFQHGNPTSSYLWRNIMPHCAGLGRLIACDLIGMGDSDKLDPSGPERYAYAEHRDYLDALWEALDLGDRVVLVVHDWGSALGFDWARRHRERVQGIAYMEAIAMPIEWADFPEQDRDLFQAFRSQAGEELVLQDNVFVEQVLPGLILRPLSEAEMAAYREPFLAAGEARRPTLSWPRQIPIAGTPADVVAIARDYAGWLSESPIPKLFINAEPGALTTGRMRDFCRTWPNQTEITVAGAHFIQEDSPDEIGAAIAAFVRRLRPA
Excerpt: The haloalkane dehalogenase LinB was used to develop biosensors for several halogenated hydrocarbons.

[2] = target: T1, LinB haloalkane dehalogenase; settings: reported by Damborsky et al. 2001; cited from earlier work
melamine deaminase TriA = target: T2, melamine deaminase TriA (Paracidovorax citrulli, UniProt Q9EYU0); assay: TriA (melamine deaminase) biosensor response, cells in calcium alginate on pH-sensitive optical fiber; assay type: cell-based, Escherchia coli DH5α pJS3
T2 construct: expressed in transfected cells; host or cells: Escherichia coli DH5α pJS3
Excerpt: Cells of Escherchia coli DH5α pJS3 (Seffernick et al., J. Bact. 183 (8), 2405-2410, 2001) were immobilized in calcium alginate on the tip of an optical fiber coated with a PVA-fluoresceinamine conjugate, a pH-sensitive fluorophore. The plasmid pJS3 contains the gene triA, and thus the E. coli cells can express the melamine deaminase TriA, which catalyzes the cleavage of one of the amine groups. The products of this reaction are ammeline (2-hydroxy-4,6-diamino-s-triazine) and ammonia.
The release of ammonia led to an increase in pH on the tip of the optical fiber, which was detected as an increase in the fluorescence of fluoresceinamine (FIG. 21).
The melamine deaminase biosensor was also responsive to the related amine-containing chemical 2-chloro-4,6-diamino-s-triazine (CAAT) (Table 12 and FIG. 22).

E. coli pAQN (linB) = target: T3, E. coli pAQN (linB) (Sphingobium indicum, UniProt D4Z2G1); assay: Biosensor response to 1,2-dibromoethane measured repeatedly over 50 days; assay type: cell-based; settings: 5 ppb of 1,2-dibromoethane, in more than 50 days
T3 construct: expressed in transfected cells; host or cells: E. coli carrying plasmid pAQN
Protocol: FIG. 17 depicts a biosensor response to 5 μg/L 1,2-dibromoethane using E. coli pAQN (linB) as the biocomponent, measured repeatedly over 50 days, according to an embodiment.
The release of a proton from the dehalogenation reaction is detected as a pH change at the end of the optical fiber, and thus as a change in fluorescence intensity (FIG. 14). Fiber optic biosensors for 1,2-dichloroethane (DCA), ethylene dibromide (EDB), atrazine, 1-chlorohexane and Lindane (γ-hexachlorocyclohexane) have been developed (Campbell, 1998; Das, N., Development and Characterization of a Biosensor for Atrazine in Groundwater, Chemical Engineering. 2000, Colorado State University: Fort Collins). These biosensors have linear response ranges over several orders of magnitude in concentration, and detection in the ppt (ng/L) range has been achieved (FIG. 15). […] This fact, and the stability of the enzymes, allows the biosensors to retain activity for many weeks. In one test (FIG. 16), the biosensor response to 5 ppb of 1,2-dibromoethane declined by only 20% in more than 50 days. Sensitive measurement is still possible even at the end of the test; only a recalibration is required.

T2 sequence (Q9EYU0 whole entry): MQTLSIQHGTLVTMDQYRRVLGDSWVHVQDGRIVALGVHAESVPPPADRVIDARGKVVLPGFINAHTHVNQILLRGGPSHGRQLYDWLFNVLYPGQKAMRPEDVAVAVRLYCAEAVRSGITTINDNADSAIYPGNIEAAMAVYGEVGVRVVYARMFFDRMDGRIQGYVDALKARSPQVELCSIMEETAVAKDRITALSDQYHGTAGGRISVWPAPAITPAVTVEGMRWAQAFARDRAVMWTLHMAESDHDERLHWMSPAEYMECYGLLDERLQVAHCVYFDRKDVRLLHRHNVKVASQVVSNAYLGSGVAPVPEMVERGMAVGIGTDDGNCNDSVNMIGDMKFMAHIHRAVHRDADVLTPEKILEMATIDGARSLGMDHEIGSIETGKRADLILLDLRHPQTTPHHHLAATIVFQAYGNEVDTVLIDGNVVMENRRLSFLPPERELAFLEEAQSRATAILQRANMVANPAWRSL

| Structure (SMILES) | Biosensor sensitivity (ΔV/ppb analyte) [1] | LinB activity (% of 1-chlorobenzene rate) [2] | Response (count) (melamine deaminase TriA; 0.12 mg/L) | Response time (melamine deaminase TriA; 0.12 mg/L) | Response (count) (melamine deaminase TriA; 1.21 mg/L) | Response time (melamine deaminase TriA; 1.21 mg/L) | decline of biosensor response (E. coli pAQN (linB)) |
| --- | --- | --- | --- | --- | --- | --- | --- |
| CCCCCCCl [1-chlorohexane] | 0.21 ΔV/ppb analyte | 145% | – | – | – | – | – |
| Nc1nc(N)nc(Cl)n1 [CAAT, 2-chloro-4,6-diamino-s-triazine] | – | – | 150 count | 2 h | 800 count | 10 h | – |
| Nc1nc(N)nc(N)n1 [Melamine, 2,4,6-triamino-1,3,5-triazine] | – | – | 1000 count | 20 h | 2700 count | 16 h | – |
| BrCCBr [1,2-dibromoethane] | 0.29 ΔV/ppb analyte | 355% | – | – | – | – | 20% |
